Columns and labels:
Naïve T cells = experiment: Naïve T cell degranulation assay and cytokine production; format: cell-based; conditions: PMA/Ionomycin
Description: FIG. 21A-E. TP0903 modulates naïve T cells function upon stimulation of PMA/Ionomycin in vitro. A. Naïve T cell proliferation assay in the presence of TP0903. Naïve T cells were stimulated with 5 ng/ml of PMA and 0.1 μg/ml of Ionomycin in the absence or in the increasing dose of TP0903 (10-65 nM) for 3 days. […] B. At the end of the expansion on day 3, T cells were stained with inhibitory receptors. […] C. Naïve T cell degranulation assay and cytokine production in the presence of TP0903. Naïve T cells were stimulated with 50 ng/ml of PMA and 1 μg/ml of Ionomycin for 4 hours in the presence of increasing doses of TP0903 (10-65 nM). […] D. Western blot analysis of p-LCK and GATA-3 inhibition by TP0903 in naïve T cells. Naïve T cells were stimulated with 5 ng/ml of PMA and 0.1 ug/ml of Ionomycin in the absence (DMSO) or in the increasing dose of TP0903 (10-65 nM) for 24 hours. […] was used as loading control. E. TP0903 specifically reduces regulatory T cells (Treg). Effector T cells (Teff) were isolated by negative selection using RoboSep™ Human T Cell Isolation Kit (Stemcell Technologies). Tregs were isolated by negative selection using the human CD4^+CD127^lowCD25^+ Treg isolation kit (Stemcell Technologies). Teff and Treg were stimulated with anti-CD3/CD28 beads and 400 U/ml of IL-2. At day 5, total T cells were evaluated via CountBright quantification.

[1] = tested on: p-LCK, p38MAPK, GATA-3, T-bet in CART19 cells; experiment: Western blot of signaling molecules in stimulated CART19 cells; format: cell-based
luciferase-positive Jeko = experiment: CART19 cytotoxicity in the presence of TP0903; format: cell-based
Description: FIG. 1 contains a graph showing CART19 cytotoxicity in the presence TP0903. CART19 or untransduced T cells (UTDs) were co-cultured at different effector-to-target ratios (E:T) with luciferase-positive Jeko with increasing doses of TP0903 (TP). At 24 hours, cell killing was assessed by luminescence.
FIGS. 16A-B. A head-to-head comparison of two different combination therapy. UTDs (A) or CART19 (B) were co-cultured at different effector-to-target ratios (E:T) with luciferase-positive CD19^+ cell line in the presence of DMSO, 30 nM TP0903, or 100 nM ibrutinib. Cell killing was assessed by luminescence at 24 hours.
FIG. 22A-C. In vitro experiment for the combination of CART19 and TP0903. A. CART19 were cocultured at different effector-to-target ratio (E:T) with luciferase-positive JeKo-1. At 48 hours, cell killing was assessed by luminescence. […] The means and SEM are shown (**, p<0.005, *, p<0.05, one-way ANOVA analysis). n.s., not statistically significant. B. CART19 degranulation assay and cytokine production in the presence of TP0903. CART19 were cocultured with JeKo-1 for 4 hours in the presence of TP0903 doses of TP0903 (10-65 nM). […] C. Th2/Th1 T cell subtype analysis during CART19 expansion in the presence pf TP0903. CART19 cells were stimulated with lethally irradiated (120 Gy) JeKo-1 cell lines in the presence of increasing doses of TP0903 (10-30 nM). At the day 3, Th1 and Th2 cells were defined using CD4, CCR6, CCR4 and CXCR3 expression. […] The means and SEM are shown (*, p<0.05, one-way ANOVA analysis). n.s., not statistically significant.
JEKO-Luc cells or primary B cells were used for cytotoxicity assay. In brief, targets were incubated at the indicated ratios with effector T cells for 4 or 16 hours. Killing was calculated either by bioluminescence imaging on a Xenogen IVIS-200 Spectrum camera (PerkinElmer, Hopkinton, Mass., USA) or by flow cytometry. For the latter, cells were harvested; Countbright beads and life/dead (Invitrogen) were added prior to analysis. Residual live target cells were CD19+L/D−.
CART19 or UTDs were cocultured at different effector-to-target ratio (E:T) with luciferase-positive Jeko or with primary CLL cells, with increasing dose of TP0903 as indicated on the X axis. At 24 hours, cell killing was assessed by luminescence or by flow cytometry.

Effector T cells (Teff) = experiment: Effector T cell expansion (anti-CD3/CD28 beads, IL-2); format: cell-based, human; conditions: anti-CD3/CD28 beads + 400 U/ml IL-2; day 5
Description: FIGS. 19A-F. A. Inhibitory receptors expression in naïve T cells after TCR activation with CD3 stimulation in the increasing dose of TP0903. Naïve T cells were incubated with anti CD3/CD28 beads at a 1 to 3 ratio in the presence of TP0903. At day 3, T cells were stained with PD-1, TIM-3, LAG-3, and ICOS. […] Teff cells were isolated by negative selection using Human T Cell Isolation Kit. Tregs were isolated by negative selection using the human CD4^+CD127^lowCD25^+ Treg isolation kit. Teff and Treg were stimulated with anti CD3/CD28 beads and 400 U/ml of IL-2. At day 5, total T cells were evaluated via CountBright quantification. C. CART19 cytokine assay in the presence TP0903. UTDs or CART19 were incubated with Jeko in the presence of TP-0903 at a 1 to 1 ratio. Supernatant was harvested and analyzed by 32-plex Luminex array after 3 days. D. Inhibitory receptors expression in CART19 cells in the presence TP0903. UTDs or CART19 were incubated with Jeko at a 1 to 1 E/T ratio in the presence of TP0903. At day 5, T cells were stained with PD-1 (left), LAG-3 (right), and TIM-3. […] Cell killing was assessed by luminescence at 24 hours. […]
FIG. 21A-E. TP0903 modulates naïve T cells function upon stimulation of PMA/Ionomycin in vitro. […] At day 5, total T cells were evaluated via CountBright quantification.

[2] = stimulated CART cells (FIG. 18)

CN1CCN(Cc2ccc(Nc3ncc(Cl)c(Nc4ccccc4S(=O)(=O)N(C)C)n3)cc2)CC1 [TP0903]
IL-4 (Naïve T cells; 4 hours, increasing dose of TP0903 (10-65 nM)): significant inhibition
cytokine production (Th1 / Th2 cytokines) (Naïve T cells; low dose TP0903): favorably altered through the promotion of Th1 and reduction of Th2 cytokines
GATA-3 [1, 2]: reduction
P38 [1, 2]: reduction
P-JNK [1, 2]: reduction
T-bet [1, 2]: reduction
phospho LCK ([1]; stimulated CART cells, dose dependent (FIG. 18)): increase
cell killing, head-to-head comparison of combinations (luciferase-positive Jeko; 30 nM TP0903 + CART19 vs 100 nM ibrutinib + CART19, luciferase-positive CD19+ cell line, 24 hours): more synergistic killing
type of combination effect on cell killing (luciferase-positive Jeko; CART19 + TP0903, from calculations): synergistic rather than an additive effect
cell killing assessed by luminescence (luciferase-positive Jeko; CART19 + increasing doses of TP0903, different E:T ratios, luciferase-positive Jeko or primary CLL cells, 24 hours): robust killing at all E:T ratios
cytotoxic effect versus TP0903 dose (luciferase-positive Jeko; CART19 with luciferase-positive JeKo-1, 48 hours, at a specific E:T ratio): increased cytotoxic effect was significantly correlated to increased TP0903 dose
antitumor activity against JeKo in vitro (luciferase-positive Jeko; combination of CART19 cells and TP0903, low E:T ratios): synergistic antitumor activity
Teff expansion (Effector T cells (Teff)): not interfered

Source: US20210145830A1, “MATERIALS AND METHODS FOR TREATING CANCER” (Mayo Foundation for Medical Education and Research, priority 2018, published 2021)
